Source: patent US20230126310A1 (priority 2020, published 2023)
Counter-ions that a name gives are not always drawn. Like-named read-outs stand apart in the source and are kept apart here.

Experiments:
[1] = Compound cytotoxicity against CaCo-2 cells at 48 hours; type: cell-based, Human; conditions: human, CaCo-2 cells; Table 5, further results of Examples 1 and 2; mean ± spread
Method: The cytotoxicity of the profiled compounds towards CaCo-2 cells at 48 hours was assessed. […] After 48 hours, cytotoxicity was evaluated using both digital phase contrast readout as described above and ATP determination (Cell titre-glo, Promega Corp).

[2] = tested on: SARS-CoV-2; test: microbe, parasite or virus in culture; conditions: Severe acute respiratory syndrome coronavirus 2, Caco-2, 48 h; for inhibition at 10 µM: read-out: % Inh. (% Inhibition of SARS-CoV-2)
[3] = tested on: SARS-CoV-2; conditions: 10 µM

Compound | CC50 at 48 h [1] [µM] | inhibition at 10 µM [2] [%] | IC50 [2] [µM] | IC50 ([2]; read-out: pIC50 (converted)) [µM] | % Inh. (% Inhibition of SARS-CoV-2) [3] [%]
CC1=C(CCC(=O)O)c2cc3[nH]c(cc4nc(cc5[nH]c(cc1n2)c(C)c5C(C)O)C(C)=C4C(C)O)c(C)c3CCC(=O)O (centres unmarked) [hematoporphyrin] | 160 ± 139 | 96.8 |  |  | 
OC(c1cc(C(F)(F)F)nc2c(C(F)(F)F)cccc12)C1CCCCN1 (centres unmarked) [MEFLOQUINE HYDROCHLORIDE] | 33 ± 7.96 | 93.3 | 28.9 | 28.8 | 
CC(C)c1cc(C(C)C)c(CC(=O)NS(=O)(=O)Oc2c(C(C)C)cccc2C(C)C)c(C(C)C)c1 [Avasimibe (CI-1011), Avasimibe] | 13.7 ± 6.18 | 91.4 | 10.9 | 11 | 
Fc1ccc(-c2cncc(CN3CCN(c4cccc5c4OCCO5)CC3)c2)cc1 [Adoprazine] | 75.9 ± 54.2 | 81.4 | 23.4 | 23.4 | 
Cc1cccc(C)c1NC(=O)CN1CCN(CCCC(c2ccc(F)cc2)c2ccc(F)cc2)CC1 [lidoflazine] | 31.9 ± 11 | 95.9 | 21.3 | 21.4 | 
Cc1cccc(C)c1OCC(=O)N[C@@H](Cc1ccccc1)[C@@H](O)C[C@H](Cc1ccccc1)NC(=O)[C@H](C(C)C)N1CCCNC1=O [Lopinavir (ABT-378), Lopinavir] | 2130 ± 3590 | 56.6 |  |  | 
CC(C)S(=O)(=O)NC[C@H](C)c1ccc(-c2ccc(CCNS(C)(=O)=O)cc2)cc1 [Mibampator] | 8.66 ± 1.75 | 90.1 | 2.23 | 2.24 | 
O=c1ccc2ccc(OCCCCN3CCN(c4cccc5sccc45)CC3)cc2[nH]1 [Brexpiprazole] | 50.6 ± 68.7 | 84.8 | 22.9 | 22.9 | 
C[C@@H](c1nc(-c2ccc(C#N)cc2)cs1)[C@](O)(Cn1cncn1)c1ccc(F)cc1F [ravuconazole] | 12.8 ± 0.84 | 103 | 2 | 2 | 
Cc1cc(-c2ncc(CC(=O)Nc3ccc(-c4cnccn4)cn3)cc2C)ccn1 [LGK-974] | 7.61 ± 0.06 | 105 | 2.33 | 2.34 | 
S=C(NCc1ccc2c(c1)OCO2)N1CCN(c2ncnc3c2oc2ccccc23)CC1 [Amuvatinib (MP-470), Amuvatinib] | 0.06 ± 0.01 |  |  | 0.0302 | 
Cc1nc2ccccc2n1Cc1ccc(Cl)cc1 [CHLORMIDAZOLE] | 0.88 ± 0.82 |  | > 1 |  | 
FC(F)(F)c1ccc(CNc2ccc(Cc3c[nH]c4ncc(Cl)cc34)cn2)cn1 [Pexidartinib] | 41.5 ± 32.5 |  | 5.92 | 5.89 | 
Cc1c(C(=O)Nc2ccc(N3C[C@@H](C)O[C@@H](C)C3)nc2)cccc1-c1ccc(OC(F)(F)F)cc1 [LDE225 (NVP-LDE225, Erismodegib), Erismodegib] | 2.26 ± 1.28 | 93.5 | 7.03 | 7.08 | 
CNC(=O)c1cc(Oc2ccc(NC(=O)Nc3ccc(Cl)c(C(F)(F)F)c3)c(F)c2)ccn1 [Regorafenib (BAY 73-4506), Regorafenib] | 0.97 ± 0.6 | 91.5 |  |  | 
COC(=O)C[C@](O)(CCCC(C)(C)O)C(=O)O[C@@H]1C(OC)=C[C@]23CCCN2CCc2cc4c(cc2[C@H]13)OCO4 [homoharringtonine] | 1.72 ± 1.89 | 154 | 2.25 | 2.24 | 

Compound | CC50 at 48 h [1] [µM] | inhibition at 10 µM [2] [%] | IC50 [2] [µM] | IC50 ([2]; read-out: pIC50 (converted)) [µM] | % Inh. (% Inhibition of SARS-CoV-2) [3] [%]
NC(=O)N1CCC(CC(=O)N2CCC([C@H]3c4ncc(Br)cc4CCc4cc(Cl)cc(Br)c43)CC2)CC1 [Lonafarnib (SCH66336), Lonafarnib] | 10.7 ± 7.39 |  |  |  | 
CC(C)C(C(=O)Nc1nccs1)c1ccc(Cl)cc1 (centres unmarked) [4-CMTB] |  |  |  |  | 87.1
O=C(Nc1ccc(CN2CCOCC2)cc1)c1ccc(-c2cccc(Cl)c2)o1 [CID-2011756] |  |  |  |  | 97.0
COc1ccc(CNC(=O)Nc2ncc([N+](=O)[O-])s2)cc1 [AR-A014418] |  |  |  |  | 82.3
NC(=O)Nc1sc(-c2ccc(F)cc2)cc1C(N)=O [TPCA-1] |  |  |  |  | 103.5
CC(C)NC(=O)c1ccc(C#Cc2ccncc2)cn1 [LSN-2463359] |  |  |  |  | 74.9
c1cncc(CN2CCC(n3ncc4c(N5CCOCC5)nc(-c5ccc6[nH]ccc6c5)nc43)CC2)c1 [WAY-600] |  |  |  |  | 99.1
Chlorophyllin (sodium copper salt) |  |  |  |  | 66.7
CCCCCCCCCCCCCCCc1cccc(OCC(=O)NCCO)c1 [PDP-EA] |  |  |  |  | 65.3
NCC(=O)Nc1ccc(-n2nc(C(F)(F)F)cc2-c2ccc3c(ccc4ccccc43)c2)cc1 [AR-12] |  |  |  |  | 85.7
C=C1/C(=C\C=C2/CCC[C@]3(C)[C@@H]([C@H](C)/C=C/[C@H](C)C(C)(C)O)CC[C@@H]23)C[C@@H](O)C[C@@H]1O [Ercalcitriol] |  |  |  |  | 86.9
c1cc2c(cc1C1CCCCC1)c1c3n2CCNC3CCC1 (centres unmarked) [tetrindole] |  |  |  |  | 75.2
O=C1Nc2ccccc2C2(CCN(CCc3ccc(C(F)(F)F)cc3)CC2)O1 [RS-102895] |  |  |  |  | 82.1
Cc1cc(C)c(NC(=O)C2CC3CCC2C3)c(C)c1 (centres unmarked) [ML-213] |  |  |  |  | 69.5
CCN1CCN(Cc2ccc(C(=O)Nc3ccc(C)c(Oc4ccc5c(c4)CC(=O)N5)c3)cc2C(F)(F)F)CC1 [DDR1-IN-1] |  |  |  |  | 77.6
